From patent US11371077B2, “High throughput cell-based screening for aptamers” (MeiraGTx UK II Limited, priority 2016, dated 2022) come the findings set out here.

Counter-ions that a name gives are not always drawn. Like-named read-outs stand apart in the source and are kept apart here.

Holding throughout (type): cell-based
In data set [1] the test system is xpt-G17 riboswitch. Kind of data set: Luciferase reporter assay, xpt-G17 riboswitch, transfected HEK 293 cells. The settings on record: for fold induction at 100 µM: Homo sapiens, HEK293, xpt-G17 riboswitch; for fold induction at 100 µM / Fold Induction of luciferase activity: Prestwick library compounds at 100 μM, HEK 293; for fold induction at 100 µM / response of guanine riboswitch xpt-G17 to compound (FIG. 1e) / Fold Induction of luciferase activity: preliminary screen; for response of guanine riboswitch xpt-G17 to compound (FIG. 1e): Prestwick library at 100 μM; for Fold Induction of luciferase activity: xpt-G17 riboswitch. An excerpt: (§1) A truncated human beta-globin intron sequence was synthesized and inserted in the coding sequence of a firefly luciferase gene. A mutant human DHFR exon 2 was synthesized and inserted in the middle of this truncated beta-globin intron sequence using Golden gate cloning strategy. Aptamers including xpt-G/A^1, ydhl-G/A^2, yxj^3, add^4, gdg6-G/A^5 (citations for the aptamers are incorporated herein by reference) were synthesized as oligonucleotides (“oligos”) with 4 nucleotide overhang at the 5′ end that are complementary to two different BsaI sites individually (IDT), annealed and ligated to BsaI-digested mDHFR-Luci-acceptor vector.
(§2) 3.5×10^4 HEK 293 cells were plated in a 96-well flat bottom plate the day before transfection. Plasmid DNA (500 ng) was added to a tube or a 96-well U-bottom plate. Separately, TransIT-293 reagent (Mirus; 1.4 μL) was added to 50 μL Opti-mem I media (Life Technologies), and allowed to sit for 5 minutes at room temperature (RT). Then, 50 μL of this diluted transfection reagent was added to the DNA, mixed, and incubated at RT for 20 min. Finally, 7 μL of this solution was added to a well of cells in the 96-well plate.
(§3) 24 hours after media change, plates were removed from the incubator, and equilibrated to RT for several minutes on a lab bench, then aspirated. Glo-lysis buffer (Promega, 100 μL, RT) was added, and the plates maintained at RT for at least 5 minutes. Then, the well contents were mixed by 50 μL trituration, and 20 μL of each sample was mixed with 20 μL of bright-glo reagent (Promega) that had been diluted to 10% in glo-lysis buffer. 96 wells were spaced on an opaque white 384-well plate. Following a 5 min incubation at RT, luminescence was measured using a Tecan machine with 500 mSec read time. The luciferase activity was expressed as mean relative light unit (RLU)±S.D., and fold induction was calculated as the luciferase activity obtained with guanine treatment divided by luciferase activity obtained without guanine treatment.

In data set [2] the test system is xpt-A8 riboswitch. As to the kind of experiment: cells. The conditions noted are these: for fold induction at 100 µM: Homo sapiens.
Source text: (§4) Riboswitches were constructed as described in PCT/US2016/016234 (in particular Examples 3 to 6), incorporated herein by reference. A truncated human beta-globin intron sequence was synthesized and inserted in the coding sequence of a firefly luciferase gene. A mutant human DHFR exon 2 was synthesized and inserted in the middle of this truncated beta-globin intron sequence using Golden gate cloning strategy. Aptamers including xpt-G/A^1, ydhl-G/A^2, yxj^3, add^4, gdg6-G/A^5 (citations for the aptamers are incorporated herein by reference) were synthesized as oligonucleotides (“oligos”) with 4 nucleotide overhang at the 5′ end that are complementary to two different BsaI sites individually (IDT), annealed and ligated to BsaI-digested mDHFR-Luci-acceptor vector.
as §2, §3

Data set [3] relates to add-A6 riboswitch. Kind of data set: cells. The settings on record: for fold induction at 100 µM: Homo sapiens.
Source text: as §4, §2, §3

Data set [4] deals with add-G6 riboswitch. Kind of data set: cells. The conditions noted are these: for fold induction at 100 µM: Homo sapiens.
Source text: as §1
(§5) 3.5×10^4 HEK 293 cells were plated in a 96-well flat bottom plate the day before transfection. Plasmid DNA (500 ng) was added to a tube or a 96-well U-bottom plate. […] Then, 50 μL of this diluted transfection reagent was added to the DNA, mixed, and incubated at RT for 20 min. Finally, 7 μL of this solution was added to a well of cells in the 96-well plate.
as §3, with “The luciferase activity was expressed as mean relative light unit (RLU)±S.D., and fold induction was calculated as the luciferase activity obtained with guanine treatment divided by luciferase activity obtained without guanine treatment.” left out

For data set [5], the system named is ydhl-A6 riboswitch. Kind of data set: Luciferase reporter assay, ydhl-A6 riboswitch, transfected HEK 293 cells. The conditions noted are these: Homo sapiens, HEK293, read-out: Fold Induction of luciferase activity, ydhl-A6 riboswitch; Prestwick library compounds at 100 μM; HEK 293.
Source text: as §1, §5, §3
Background: A reporter such as luciferase makes a cellular process visible.

For data set [6], the system named is gdg6-G8 riboswitch. As to the kind of experiment: Luciferase reporter assay, gdg6-G8 riboswitch, transfected HEK 293 cells. The conditions noted are these: for fold induction at 100 µM: Homo sapiens, HEK293, gdg6-G8 riboswitch, Prestwick library compounds at 100 μM, HEK 293; for Fold Induction of luciferase activity: 100 µM.
Source text: as §4, §2, §3

Data set [7] relates to yxj-A6 riboswitch. Kind of data set: cells. The settings on record: for fold induction at 100 µM: Homo sapiens.
Source text: as §1, §2
as §3, with “The luciferase activity was expressed as mean relative light unit (RLU)±S.D., and fold induction was calculated as the luciferase activity obtained with guanine treatment divided by luciferase activity obtained without guanine treatment.” left out

The test system of data set [8] is ydhl-G8 riboswitch. As to the kind of experiment: Luciferase reporter assay, ydhl-G8 riboswitch, transfected HEK 293 cells. The settings on record: for fold induction at 100 µM: Homo sapiens.
Source text: as §1, §5, §3

The subject of data set [9] is gdg6-A8 riboswitch. As to the kind of experiment: Luciferase reporter assay, gdg6-A8 riboswitch, transfected HEK 293 cells. The settings on record: for fold induction at 100 µM: Homo sapiens, HEK293, gdg6-A8 riboswitch, Prestwick library compounds at 100 μM, HEK 293; for Fold Induction of luciferase activity: 100 µM.
Source text: as §4, §2, §3

Data set [10] deals with riboswitches with guanine aptamers. As to the kind of experiment: Dose responses of constructs with different aptamer based riboswitches (FIG. 1b). The conditions noted are these: mammalian cells.
Source text: as §1
3.5×10^4 HEK 293 cells were plated in a 96-well flat bottom plate the day before transfection. Plasmid DNA (500 ng) was added to a tube or a 96-well U-bottom plate. […] Then, 50 μL of this diluted transfection reagent was added to the DNA, mixed, and incubated at RT for 20 min. […]
24 hours after media change, plates were removed from the incubator, and equilibrated to RT for several minutes on a lab bench, then aspirated. […] Following a 5 min incubation at RT, luminescence was measured using a Tecan machine with 500 mSec read time. The luciferase activity was expressed as mean relative light unit (RLU)±S.D., and fold induction was calculated as the luciferase activity obtained with guanine treatment divided by luciferase activity obtained without guanine treatment.

Setting [11] is: HEK293, read-out: Fold Induction of luciferase activity.
Setting [12] is: add-A6 riboswitch, Prestwick library compounds at 100 μM, HEK 293.
Setting [13] is: add-G6 riboswitch, Prestwick library compounds at 100 μM, HEK 293.
Setting [14] is: yxj-A6 riboswitch, Prestwick library compounds at 100 μM, HEK 293.
Where [15] appears, read: ydhl-G8 riboswitch, Prestwick library compounds at 100 μM, HEK 293.
The mark [16] stands for this setting: HEK293, xpt-A8 riboswitch, Prestwick library compounds at 100 μM, HEK 293, read-out: Fold Induction of luciferase activity.
[17] abbreviates: HEK293, add-A6 riboswitch, Prestwick library compounds at 100 μM, HEK 293, read-out: Fold Induction of luciferase activity.
The mark [18] stands for this setting: HEK293, add-G6 riboswitch, Prestwick library compounds at 100 μM, HEK 293, read-out: Fold Induction of luciferase activity.
The mark [19] stands for this setting: HEK293, yxj-A6 riboswitch, Prestwick library compounds at 100 μM, HEK 293, read-out: Fold Induction of luciferase activity.

For the molecule `Nc1nc2nn[nH]c2c(=O)[nH]1` [8-Azaguanine], the fold induction at 100 µM came to 131 in data set [1]; 95.1 in data set [2] (setting [11]); 22.1 in data set [3] (setting [11]); 47.9 in [4] (setting [11]); 3.7 in data set [5]; 42.3 in data set [6]. Further, the fold induction at 100 µM in data set [7] (setting [11]) turned out to be 55.6; in data set [8] (setting [11]), 35.6; in data set [9] it was 306. Further, the “response of guanine riboswitch xpt-G17 to compound (FIG. 1e)” value in data set [1] is reported as “responded”.

With `CC(=O)c1ccc2c(c1)N(CCCN(C)C)c1ccccc1S2.O=C(O)/C=C\C(=O)O` [Acetopromazine maleate salt], the “Fold Induction of luciferase activity” value in [1] worked out at 4.5 fold; in data set [3] (setting [12]), 3.5 fold; in [4] (setting [13]), 5.0 fold; in data set [6] it was 3.2 fold; in [7] (setting [14]), 3.1 fold; in data set [8] (setting [15]), 3.9 fold. Also, the “Fold Induction of luciferase activity” value in data set [9] is 8.6 fold.

For `Cn1cnc([N+](=O)[O-])c1Sc1ncnc2nc[nH]c12` [Azathioprine], the fold induction at 100 µM in [1] came to 6.2; in [2] (setting [16]), 5.9; in data set [3] (setting [17]) it was 6.5; in [4] (setting [18]), 11.4; in data set [6], 16.2; in data set [7] (setting [19]), 6.6. In data set [9], this molecule gave a fold induction at 100 µM of 19.9.

As for `S=c1nc[nH]c2nc[nH]c12` [Mercaptopurine], the fold induction at 100 µM turned out to be 3.4 in data set [2] (setting [16]); 15 in data set [3] (setting [17]); 14.3 in data set [4] (setting [18]); 16.2 in [6]; 10 in data set [7] (setting [19]); 3.6 in [8] (setting [11]). This molecule registered a fold induction at 100 µM in data set [9] of 17.2.

Regarding `CN1CCC(=C2c3ccccc3Sc3ccccc32)CC1` [Pimethixene maleate], the fold induction at 100 µM was found to be 4.7 in [1]; 3.3 in [2] (setting [16]); 4.2 in data set [3] (setting [17]); 6.6 in data set [4] (setting [18]); 5.1 in data set [6]; 4.9 in data set [7] (setting [19]). The fold induction at 100 µM in [9] was 9.2.

Regarding `CN(C)CCCN1c2ccccc2Sc2ccccc21` [Promazine hydrochloride], the fold induction at 100 µM came out at 3.7 in [1]; 4.1 in data set [2] (setting [11]); 10.5 in data set [3] (setting [11]); 5.4 in [4] (setting [11]); 6.2 in data set [6]; 6.6 in data set [7] (setting [11]). Also, the fold induction at 100 µM in data set [8] (HEK293, ydhl-G8 riboswitch, Prestwick library compounds at 100 μM, HEK 293, read-out: Fold Induction of luciferase activity) turned out to be 5.2; in data set [9], 12.6.

With `CC(CN1c2ccccc2Sc2ccccc21)N(C)C` (centres unmarked) [Promethazine hydrochloride], the fold induction at 100 µM was found to be 5.3 in data set [1]; 5.4 in data set [2] (setting [16]); 4.5 in data set [3] (setting [17]); 6.7 in data set [4] (setting [18]); 6.5 in [6]; 7.9 in data set [7] (setting [19]). Further, in [9], the fold induction at 100 µM stood at 4.8.

Take `Nc1nc2nc[nH]c2c(=O)[nH]1` [guanine]: the “response of guanine riboswitch xpt-G17 to compound (FIG. 1e)” value in data set [1] is given as “responded”. Also, the “induction fold of luciferase reporter in response to guanine” value in [1] (xpt-G17, high concentration of guanine) is 2000 fold. Besides, the “response of riboswitches with guanine aptamers (reporter gene expression, FIG. 1b)” value in data set [10] was “responds”.

Regarding `Nc1nc2c(ncn2[C@@H]2O[C@H](CO)[C@@H](O)[C@H]2O)c(=O)[nH]1` [guanosine], in data set [10], the “response of riboswitches with guanine aptamers (reporter gene expression, FIG. 1b)” value was “responds”.

For the molecule Trimeprazine tartrate, the “Fold Induction of luciferase activity” value is recorded as 4.9 fold in [1]; 4.0 fold in data set [3] (setting [12]); 6.2 fold in [4] (setting [13]); 6.2 fold in data set [6]; 7.0 fold in data set [7] (setting [14]); 5.0 fold in data set [8] (setting [15]). The “Fold Induction of luciferase activity” value in data set [9] stood at 8.7 fold.

With Trimipramine maleate salt, the “Fold Induction of luciferase activity” value in data set [3] (setting [12]) is listed as 3.4 fold; in data set [4] (setting [13]), 3.4 fold; in data set [6], 3.3 fold; in data set [7] (setting [14]), 3.3 fold; in [9], 5.3 fold.

For thioguanosine, the “Fold Induction of luciferase activity” value is given as 21.0 fold in data set [1]; 11.8 fold in data set [2] (xpt-A8 riboswitch, Prestwick library compounds at 100 μM, HEK 293); 5.9 fold in data set [3] (setting [12]); 7.9 fold in data set [4] (setting [13]); 15.9 fold in data set [6]; 10.2 fold in data set [7] (setting [14]). Also, the “Fold Induction of luciferase activity” value is recorded as 7.5 fold in data set [8] (setting [15]) and 20.1 fold in [9].
